{
  "source": "patent US9580465B2",
  "about": "“Tissue protective peptides and peptide analogs for preventing and treating diseases and disorders associated with tissue damage” (ARAIM PHARMACEUTICALS, INC., priority 2008, dated 2017)",
  "key": {"[1]": {"tested_on": "9 L/LacZ gliosarcoma cells", "assay": "Cortical tumor implant", "format": "in vivo, CD fisher rats", "details": "30 μg/kg i.p. daily for 25 days following implantation; FIG. 12", "experimental": "A cortical tumor implant study was conducted in accordance with the protocol of Lampson et al. Cancer Res. 53:176-82:1993 to determine the effect of Peptide ID on the growth of the tumor.\nIn accordance with the protocol, male CD fisher rats were anesthetized and their right scalp was shaved and washed with disinfectant. A small incision was then made in the scalp overlying the right temporal cerebral cortex. A 1 mm hole was drilled through the calvarium, without puncturing the dura matter. Under aseptic conditions, living 50,000 9 L/LacZ gliosarcoma cells in 5 μl was slowly injected through a 22 gauge needle attached to a precision Hamilton syringe. Bone wax was then applied to the trephanation site, the skin was sutured and a prophylactic dose of antibiotic was administered i.p. Control rats were provided with saline injections i.p. daily. The rats treated with Peptide ID received daily injections of 30 μg/kg i.p. daily for a period of 25 days. At 25 days following implantation, the animal was anesthetized and the brain perfused-fixed with 2% paraformaldehyde. The brain was then removed and cut on a brain matrix device into coronal sections 1 mm thick and the extent of tumor mass was determined by planimetric methodology."}, "[2]": {"tested_on": "histamine", "assay": "Histamine induced wheal formation, peptide given at time of challenge", "format": "in vivo, Sprague-Dawley rats", "details": "30 μg/kg at time of histamine challenge", "experimental": "Under isoflurane anesthesia, 12 Sprague-Dawley rats' abdomens were shaved and depilated. Each rat was then injected intravenously (via internal jugular) with a dilute solution of Evans Blue (30 mg/ml in saline, 1 ml/kg bw). After 5 minutes, 6 small doses of histamine (Histamine diphosphate, 20 microliters administered intradermally) in a rectangular pattern on each rat's abdomen. After fifteen minutes, when the wheal reaches its maximum size the wheal is photographed and the blister area was determined by digital planimetry. To test the efficacy of various peptides, the peptide of interest was administered to the rats intravenously shortly after the histamine injection.\nRats received either saline, Peptide IY (30 μg/kg), Peptide ID (30 μg/kg), or Peptide IW (30 μg/kg) at time of histamine challenge.\nRats received either saline, peptide JA (30 μg/kg), peptide IZ (30 μg/kg), peptide IW (30 μg/kg) or peptide ID (30 μg/kg) at time of histamine challenge."}, "[3]": {"tested_on": "pressure ulcer", "assay": "Decubitus ulcer (pressure sore) assay", "format": "in vivo, Sprauge-Dawley rats", "details": "FIG. 20", "experimental": "A decubitus ulcer (pressure sore) assay was performed on 24 adult Sprauge-Dawley rats in accordance with the disclosure of Pierce et al., Selective A2A adenosine receptor activation reduces skin pressure ulcer formation and inflammation, Am J Physiol Heart Circ Physiol 281:67-74, 2001. Briefly, a ferromagnetic steel plate was implanted under a dorsal region of the rats skin. A rectangular permanent magnet was applied to the area of the skin under which the plate was implanted in order to compress the skin between the plate and the magnet. This compression reduced the flow of blood to the skin causing ischemia. The rats were subjected to a cycle of ischemia-reperfusion (2 hours ischemia with a 0.5 hour reperfusion) for a 72-hour period. […] Daily the area of the wound on each rat was measured for a period of 12 days."}, "[4]": {"tested_on": "full-thickness skin wounds", "assay": "Full thickness punch biopsy model of wound healing", "format": "in vivo, Sprauge-Dawley rats", "details": "24 nmol/kg of bw s.c. daily for 10 days; FIG. 8", "experimental": "A full thickness punch biopsy model of wound healing was used to evaluate Peptide ID. In this experiment, 3.5 mm-diameter full-thickness skin wounds were placed at the corners of a 3 cm-wide square on the shaved and depilated scapular region of Sprauge-Dawley rats. Peptide ID (24 nmol/kg of bw, 9 rats) or PBS (9 rats) was administered subcutaneously daily for 10 days."}, "[5]": {"tested_on": "UT-7epo cells", "assay": "UT-7epo proliferation/survival assay of erythropoietic potency", "format": "cell-based, human", "details": "5 pM to 50 nM, 48 h incubation, WST-I reagent; FIG. 1", "experimental": "The cells were maintained in 75 cm^2 flasks with 20 ml of medium/flask in a humidified incubator with 5% CO2 at 37° C. for 48 h. On day two of the assay, i.e., at 48 h, the cells were transferred from the flask into a 50-ml conical tube and centrifuged at 1,000 rpm for 5 minutes at room temperature. The supernatant was discarded and the cells were washed two times with 10 ml of starvation media (3% donor calf serum, 4 mM L-glutamine). The cells were then re-suspended in starvation media, using up and down pipette action to obtain a single cell suspension. The re-suspended cells were diluted with starvation media to obtain a density of 4×10^5 cells/ml, and plated at a total culture volume of 10 ml per 25 cm^2 flask. Following a 4 h incubation, the cells were again transferred to a 50-ml conical tube.\nA series of 10 fold dilutions in RPMI 1640 medium containing 3% serum was used to generate concentrations of test compounds from 5 pM to 50 nM. Following a further for 48 h incubation, a solution of […] WST-I Cell Proliferation Reagent (Roche) was added to each well, and incubated for 1 hour at 37° C. in CO2. After mixing for 1 minute, the plate was read in a plate reader (absorption at 450 nm, subtracted from background absorption at 650 nm)."}, "[6]": {"tested_on": "total body gamma radiation", "assay": "Radiomitigating activity in hematopoietic screening assay", "format": "in vivo, C57BL/6 mice", "details": "for survival at day 30: 30 ug/kg subcutaneously from 24 hrs after irradiation, daily for 29 days", "experimental": "The ability of peptides useful in the current therapeutic method to mitigate the effects of a radioactive agent on the hematopoietic system was evaluated in a murine model of radiation injury. Briefly, 80 C57BL/6 mice (50% female and 50% male, 15-28 gm) were used in the study were divided into two groups.\nIn both groups the radiation was administered to the mice as a single uniform total body dose of gamma radiation from a ^137Cs radiation source (GammaCell 40; Nordion International, Kanata, Ontario, Canada) at an exposure rate of 65-69 cGy/minute+/−2.5 cGy.\nGroup A received a LD70/30 dose of radiation (796 cGy) and then 20 of the mice were administered Peptide ID (30 ug/kg subcutaneously) at 24 hrs after irradiation and then once a day for 29 days. The remaining 20 mice (control group) received PBS (subcutaneously) at 24 hrs after irradiation and then once a day for 29 days.\nThe remaining 20 mice (control group) received PBS (subcutaneously) at 24 hrs after irradiation and then once a day for 29 days.\nThe mice were monitored for survival once a day until signs of early euthanasia appeared, then twice/day until day 30."}},
  "note": "“And” between values parts separate entries of the source, which are not always exact repeats. Identical values can stand only once. “Also recorded” adds a separate entry of the source. Square brackets hold non-standard residues; d marks the D form. pGlu = O=C1CC[C@@H](C(=O)O)N1",
  "data": [
    {"sequence": "UEQLERALNSS ([pGlu]EQLERALNSS-OH; also: acetate/ammonium mixed salt) [Peptide ID, first glutamine replaced with pyroglutamate]", "values": [
      {"measurement": "relative volume of cortical tumor", "setting": "[1]", "value": "no growth in the tumor volume; also recorded: no increase in the relative volume of the tumor"},
      {"measurement": "wheal area (lesion area)", "setting": "[2]; FIG. 18", "value": "about 0.35 cm^2"},
      {"measurement": "wheal area (lesion area)", "setting": "[2]; FIG. 19", "value": "~0.35 cm^2 and 0.4 cm^2"},
      {"measurement": "wound (ulcer) size (area)", "setting": "[3]; 30 μg/kg sc daily, compared with all groups", "value": "smallest wound size"},
      {"measurement": "wound (ulcer) size (area)", "setting": "[3]; Peptide ID 30 μg/kg sc twice or daily, EPO daily, 12 days, versus saline", "value": "reduced the size of the wound; also recorded: better wound healing"},
      {"measurement": "area of open wound over treatment", "setting": "[4]", "value": "faster healing; also recorded: healed more rapidly"},
      {"measurement": "proliferation of UT-7 EPO cells (erythropoietic activity)", "setting": "[5]", "value": "no erythropoeitic activity; also recorded: did not result in proliferation of the cells"},
      {"measurement": "survival at day 30", "setting": "[6]; 796 cGy (LD70/30), FIG. 21A", "value": 45, "unit": "%"},
      {"measurement": "thirty-day survival and overall survival time versus PBS", "setting": "[6]; 796 cGy and 831 cGy, 30 ug/kg subcutaneously daily", "value": "significantly increased the overall survival time"},
      {"measurement": "survival at day 30", "setting": "[6]; 831 cGy (LD90/30), FIG. 21B", "value": 20, "unit": "%"}
    ]}
  ]
}
